The values that follow come from patent US7994331B2, “Heterocycle-substituted benzimidazole derivative” (MSD K.K., priority 2005, dated 2011).

The target of the test is T1, recombinant human liver GK (FLAG fusion protein) (Homo sapiens, UniProt P35557).
T1 construct: made in house; host or cells: E. coli
T1 sequence (P35557 1-466 isoform P35557-2): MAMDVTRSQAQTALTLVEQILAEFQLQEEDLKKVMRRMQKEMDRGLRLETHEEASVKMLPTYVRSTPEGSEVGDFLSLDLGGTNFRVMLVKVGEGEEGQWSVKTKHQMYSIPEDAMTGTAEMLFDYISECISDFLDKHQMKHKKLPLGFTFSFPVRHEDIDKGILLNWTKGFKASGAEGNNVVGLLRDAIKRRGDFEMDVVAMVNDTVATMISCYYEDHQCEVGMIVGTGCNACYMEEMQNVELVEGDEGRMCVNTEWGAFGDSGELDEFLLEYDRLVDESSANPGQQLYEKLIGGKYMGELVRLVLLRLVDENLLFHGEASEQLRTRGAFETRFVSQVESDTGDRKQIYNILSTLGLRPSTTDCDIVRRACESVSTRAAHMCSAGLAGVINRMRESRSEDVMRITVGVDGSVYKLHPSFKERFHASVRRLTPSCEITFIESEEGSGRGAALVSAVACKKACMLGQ
Briefly: Glucokinase (GK) activation assay, G6PDH-coupled Thio-NADH absorbance at 405 nm. It is filed as biochemical. The following applies: final glucose concentration 2.5 mM, 30° C.; for EC50: GK activation; for Emax: OD level of DMSO control set as 100%. From the text: The excellent glucokinase-activating effect of the compounds of formula (I) may be determined by a method described in references (for example, Diabetes, Vol. 45, pp. 1671-1677, 1996), or in accordance with it.
The glucokinase activity may be determined not by directly measuring glucose-6-phosphate but by measuring the level of Thio-NADH, which is produced when a reporter enzyme, glucose-6-phosphate dehydrogenase produces phosphogluconolactone from glucose-6-phosphate, and based on the level, the level of glucokinase activation may be determined.
In this assay, used was a recombinant human liver GK, which was expressed by E. coli as a FLAG fusion protein therein and was purified by ANTIFLAG M2 AFFINITY GEL (Sigma).
Using a flat-bottomed 96-well plate, the assay was carried out at 30° C. 69 μl of an assay buffer (25 mM Hepes Buffer/pH=7.2, 2 mM MgCl2, 1 mM ATP, 0.5 mM TNAD, 1 mM dithiothreitol) was put into the plate, and 1 μl of a DMSO solution of the compound or DMSO alone as a control was added thereto. Next, 20 μl of an enzyme mixture (FLAG-GK, 20 U/ml G6PDH) cooled in ice was added to it, and 10 μl of a substrate, 25 mM glucose was added to it, and the reaction was initiated (final glucose concentration=2.5 mM).
After the start of the reaction, the increase in the absorbance at 405 nm was measured for 12 minutes at intervals of 30 seconds, and the increase for the first 5 minutes was used for evaluating the compound tested. FLAG-GK was added so that the absorbance increase after 5 minutes in the presence of 1% DMSO could be from 0.04 to 0.06.
The OD level of the DMSO control was set as 100%; and the OD level of the test compound at different concentrations was determined. From the OD level at each concentration, Emax (%) and EC50 (μM) were computed and used as the index of the GK-activating potency of the compound.

Usually EC50 stands for the concentration at which the effect is half-maximal. In general, Emax refers to the maximal effect, on the per cent scale that the assay sets. For the molecule `CCS(=O)(=O)c1ccc(Oc2cc3[nH]c(-c4ccccn4)nc3cc2C2OCCO2)cc1` [Example 1, 5-(1,3-dioxolan-2-yl)-6-(4-(ethylsulfonyl)phenoxy)-2-pyridin-2-yl-1H-benzimidazole], the EC50 was 1180 nM and the Emax came out at 923%.

On to `Cc1nc(-c2ccc(Oc3cc4[nH]c(-c5ccccn5)nc4cc3C3CCCO3)cn2)no1` (centres unmarked) [Example 17, 5-(tetrahydrofuran-2-yl)-6-(6-(5-methyl-(1,2,4)oxadiazol-3-yl)-pyridin-3-yloxy)-2-pyridin-2-yl-1H-benzimidazole], for which the half-maximal effective concentration (EC50) is 1400 nM.

As to `CCS(=O)(=O)c1ccc(Oc2cc3[nH]c(-c4cnccn4)nc3cc2C2CCC(=O)O2)cc1` (centres unmarked) [Example 23, 5-(6-(4-(ethylsulfonyl)phenoxy)-2-pyrazin-2-yl-1H-benzimidazol-5-yl)dihydrofuran-2(3H)-one], the EC50 came out at 1420 nM.

As for `CCS(=O)(=O)c1ccc(Oc2cc3[nH]c(-c4ccccn4)nc3cc2C2CCCS2)cc1` (centres unmarked) [Example 29-1, 5-(tetrahydro-2-thienyl)-6-(4-(ethylsulfonyl)phenoxy)-2-pyridin-2-yl-1H-benzimidazole], the EC50 is 600 nM.

`CCS(=O)(=O)c1ccc(Oc2cc3[nH]c(-c4ccccn4)nc3cc2C2OC(=O)N(C)C2=O)cc1` (centres unmarked) [Example 31, 5-(6-(4-(ethylsulfonyl)phenoxy)-2-pyridin-2-yl-1H-benzimidazol-5-yl)-3-methyl-1,3-oxazolidine-2,4-dione]: the EC50 is 1580 nM.

In the case of `CCS(=O)(=O)c1ccc(Oc2cc3[nH]c(-c4ccccn4)nc3cc2C2CCOC2=O)cc1` (centres unmarked) [Example 36, 3-(6-(4-(ethylsulfonyl)phenoxy)-2-pyridin-2-yl-1H-benzimidazol-5-yl)dihydrofuran-2(3H)-one], the EC50 turned out to be 880 nM and the Emax came to 978%.
